Data reported in patent EP0533350B1, “DNA encoding precursor interleukin 1B converting enzyme” (Merck & Co., Inc., priority 1991, dated 1993).
Read-outs that look alike come from different tables or passages of the source. Where a SMILES comes first, the peptide text is derived from it. [ ]: non-standard residue; d: D form. The star is where a group is joined. Sta = CC(C)C[C@H](N)[C@@H](O)CC(=O)O; Isovaleryl = CC(C)CC(=O)*

Key:
ICE [1] = target: T1, ICE (Homo sapiens, UniProt P29466); assay: Discontinuous kinetic assay of ICE with P14mer as substrate; format: biochemical; set-up: endogenous in cells; host or cells: THP.1 cells, S-300 (300,000 x g) cytosolic supernatant
T1 sequence (P29466 120-297): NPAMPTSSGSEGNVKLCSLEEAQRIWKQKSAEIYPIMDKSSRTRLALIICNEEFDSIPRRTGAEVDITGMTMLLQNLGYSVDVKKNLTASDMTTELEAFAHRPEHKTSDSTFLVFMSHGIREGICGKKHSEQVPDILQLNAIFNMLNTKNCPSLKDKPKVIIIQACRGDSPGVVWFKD
T1 sequence (P29466 317-404): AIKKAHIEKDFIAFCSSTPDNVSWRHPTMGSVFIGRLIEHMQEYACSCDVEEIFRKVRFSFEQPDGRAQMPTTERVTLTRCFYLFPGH
Description: Proteolytic cleavage of peptide substrates from Example 12 was carried out in the following manner. Samples of peptides were prepared in dimethyl sulfoxide at a concentration of 10 mM. The enzyme used in these studies was purified through sulfopropyl cation exhange chromatography. Reaction mixtures contained approximately 0.2 mg/ml enzyme, 0.2 mM peptide, 10% sucrose, 0.1% CHAPS (3-[(3-cholamidopropyl)dimethyl-ammonio]-1-propansulfon at), 10 mM HEPES (N-2-hydroxyethylpiperazine-N'-2-ethanesulfonic Acid), pH 7.5 in a 50 ul reaction volume. After incubation at 25 degrees for variable lengths of time, reactions were quenched with the addition of 450 ul 0.1% trifluoroacetic acid. The samples were analyzed by reverse-phase high performance liquid chromatography using a Vydac C-18 column (4.6 mm x 25 cm, 5 um particle size, 300 pore size) equilibrated with 5% acetonitrile, 0.1% trifluoroacetic acid at a flow rate of 1 ml/min. Peptides were eluted using a 10 min linear gradient of 5 to 30% acetonitrile and quantitated by monitoring the column effluent at 280 nm. Under these conditions substrate and tyrosine-containing product were separated with baseline resolution in every case. The identity of cleavage products was confirmed using peptide standards.
The data in Table 3 was generated using partially purified enzyme or THP-1 […] and the gel-based cleavage assay as an indicator of ICE activity. This has been verified and extended using the P14mer assay as well as Ac-Tyr-Val-Ala-Asp-AMC as substrates. The only exception to the results of this table came when 1,10 phenanthroline (OP) was tested as an inhibitor. […] The rate constant (8 x 10-2 s-1 M-1) for inactivation is slow and it is not possible to reconstitute ICE activity by addition of ZnC12 following treatment with the chelator. […] The data is not consistent with the hypothesis that ICE is a metalloprotease.

ICE [2] = target: T1, ICE; assay: Protease inhibitor sensitivity of ICE: inhibitor added to THP.1 S-300, gel-based pre-IL-1β cleavage assay
ICE [3] = target: T1, ICE; assay: Mixed disulfide treatment of ICE, continuous fluorometric assay, DTT reversal and dilution stability; format: biochemical; set-up: endogenous in cells; host or cells: THP.1 cells, S-300 (300,000 x g) cytosolic supernatant
ICE [4] = target: T1, ICE; assay: Size exclusion chromatography (TSK G2000) of GSSG or cystamine treated ICE; set-up: endogenous in cells; host or cells: THP.1 cells, S-300 (300,000 x g) cytosolic supernatant; settings: concentrated ICE pretreated 24 hrs, TSK G2000 column
ICE [5] = target: T1, ICE
Description: Using 14C-iodoacetate as the alkylating reagent a similar protocol was used to identify proteins that could be labeled in the presence or absence of 200 x Km substrate. […] ICE and 100 mM 14-C-iodoacetate were incubated in the presence (+S) or absence (-S) of 2.8 mM Ac-Tyr-Val-Ala-Asp-AMC and incubated for 1 hour. At 1 hour the reaction is quenched by the addition of 10 mM unlabeled iodoacetate and 10 mM DTT. Aliquots of the reaction were analyzed by SDS-PAGE followed by coomassie blue staining or autoradiography.

recombinant ICE = target: T2, recombinant ICE (Homo sapiens, UniProt P29466); assay: IL-1β precursor cleavage by lysates of COS-7 cells transfected with full-length ICE cDNA; format: biochemical; settings: lysates of COS-7 cells transfected with ICE cDNA
T2 construct: transfection of full-length ICE cDNA, including the complete ORF of the 45 kDa ICE preprotein; expressed in transfected cells; host or cells: COS-7 cells, vector pSZ-9016 co-transfected with pX8TAT; detergent lysate
T2 sequence (P29466 120-297 limits assumed): T1 sequence (P29466 120-297)
T2 sequence (P29466 317-404 limits assumed): T1 sequence (P29466 317-404)
Description: The expression of recombinant ICE was achieved by transfection of full-length ICE cDNA, including the complete ORF of the 45 kDa ICE preprotein (Fig. 23), into a mammalian host cell. The 1.6 kb EcoRI fragment containing the full length ICE cDNA was cloned into vector pSZ-9016. 6µg of this DNA along with 0.6 ug of pX8TAT, a mammalian expression vector which places the trans-activating protein (TAT) of HIV under the control of the SV40 early promoter, was transfected into COS-7 cells by the cationic-liposome method. Cells were harvested 48 hours later and lysed in detergent buffer (25 mM HEPES pH 7, 1% Triton-X-100, 1mM EDTA, 2mM DTT, 10 ug/ml aprotinin, 10 ug/ml leupeptin, 10 ug/ml pepstatin, and 2 mM PMSF). Cell lysates were incubated with radiolabeled IL-1β precursor to measure ICE activity. Cleavage products of IL-1β were analyzed by immunoprecipitation with IL-1B antibody and fractionation on SDS polyacrylamide gels. The IL-1β precursor was cleaved to the mature, 17 kDa form by cells transfected with ICE cDNA, but not by cells transfected with the expression plasmid alone. […] The substrate specificity of the expressed ICE activity was verified by incubating lysates with an IL-1β precursor cleavage site mutant (Ala^116) which cannot be cleaved by ICE. […]

ICE [6] = target: T1, ICE; assay: Inhibition of ICE by mechanism based thiol protease inhibitors (diazomethyl ketone, peptide aldehydes); format: biochemical; set-up: endogenous in cells; host or cells: THP.1 cells (or human peripheral blood monocytes); cytosolic extract, ammonium sulfate, DEAE, sulfopropyl cation exchange; settings: relative to Ac-Tyr-Val-Ala-Asp-CHO
Text: Characterization of ICE in terms of protease class was ultimately accomplished by the synthesis of two types of mechanism based thiol protease inhibitors, a diazomethyl ketone and a peptide aldehyde, both constructed from the Ac-Tyr-Val-Ala-Asp peptide. The peptidyl diazomethyl ketone (Ac-Tyr-Val-Ala-Asp-CHN2) and the peptide aldehyde (Ac-Tyr-Val-Ala-Asp-CHO) were both synthesized as described in an accompanying patent. […] However, the specificity of action on ICE has been determined by synthesis of a chemically similar peptide aldehyde, Ac-Tyr(dAla)-Val-Ala-Asp-CHO and tested for its ability to inhibit ICE in a competitive and reversible manner.

## c1cnc2c(c1)ccc1cccnc12 [1,10-phenanthroline]
ICE [1]; P14mer as substrate
  inhibition of ICE activity: can inhibit ICE activity in a time and concentration dependant manner
ICE [1]; addition of 10 mM CuSO4 to assay containing 1.0 mM OP
  increase in the rate at which ICE is inhibited: 17 fold
ICE [1]; co-treatment with EDTA and OP
  inhibition of ICE on co-treatment with two metal chelators: did not result in an inhibition of ICE
ICE [2]
  inhibition of ICE activity in the gel based cleavage assay: did not inhibit
ICE [2]; Conc. 10 mM
  Inhibition: -

## CC(C)CC(=O)N[C@H](C(=O)N[C@H](C(=O)N[C@@H](CC(C)C)[C@@H](O)CC(=O)N[C@@H](C)C(=O)N[C@@H](CC(C)C)[C@@H](O)CC(=O)O)C(C)C)C(C)C [Chloromethyl ketonePepstatin, Pepstatin] (Isovaleryl-VV[Sta]A[Sta]-OH)
ICE [2]; Conc. 100 µM
  Inhibition: -

## CC(C)CC(NC(=O)C1OC1C(=O)O)C(=O)NCCCCNC(=N)N (stereo not shown) [Compound E-64]
ICE [2]; Conc. 1 mM
  Inhibition: -

## NCCSSCCN [Cystamine]
ICE [3]; 5 mM cystamine
  half-time of time dependant decrease in activity: 19 min
ICE [3]; addition of DTT after the inactivation plateau, 5 mM cystamine
  enzyme activity recovered: 23%
ICE [3]; concentrated ICE (3 units/ml), 5 mM cystamine, 3 day equilibration at 4 °C, then DTT
  recovery of activity: Complete recovery of activity
ICE [3]; upon dilution of treated enzyme
  stabilization of ICE activity: did not appear to stabilize ICE activity
ICE [4]
  apparent Mr of treated enzyme: 22,000
ICE [2]; Conc. 1 mM
  Inhibition: +

## O=C(O)CN(CCN(CC(=O)O)CC(=O)O)CC(=O)O [EDTA]
ICE [2]; Conc. 50 mM
  Inhibition: -

## O=C(O)CN(CCOCCOCCN(CC(=O)O)CC(=O)O)CC(=O)O [EGTA]
ICE [2]; Conc. 10 mM
  Inhibition: -

## NC(=O)CI [Iodoacetamide]
ICE [2]
  Inhibition: +

## O=C(O)CI [Iodoacetic acid]
ICE [5]
  rate constant for inactivation of ICE: 24 M⁻¹ s⁻¹
ICE [5]; 100 mM iodoacetate, substrate at 1 * Km
  half-time of inhibition: 9.13 min
ICE [5]; 100 mM radiolabeled iodoacetate, 2.8 mM Ac-Tyr-Val-Ala-Asp-AMC (200 x Km) included
  ICE inactivated: < 2%
ICE [2]
  Inhibition: +

## CC(=O)N[C@@H](Cc1ccc(O)cc1)C(=O)N[C@H](C(=O)N[C@@H](C)C(=O)N[C@H](C=O)CC(=O)O)C(C)C [L-709,049]
Recombinant ICE
  inhibition of IL-1β precursor cleavage to the mature 17 kDa form: completely inhibited

## CC(=O)N[C@@H](CC(C)C)C(=O)N[C@@H](CC(C)C)C(=O)N[C@H](C=O)CCCNC(=N)N [Leupeptin]
ICE [2]
  Inhibition: -

## CCN1C(=O)C=CC1=O [N-ethyl maleimide]
ICE [2]
  Inhibition: +

## O=C1C=CC(=O)N1c1ccccc1 [N-phenyl maleimide]
ICE [2]; Conc. 1 mM
  Inhibition: +

## Cc1ccc(S(=O)(=O)N[C@@H](CCCCN)C(=O)CCl)cc1 [TLCK]
ICE [2]
  Inhibition: +

## Cc1ccc(S(=O)(=O)N[C@@H](Cc2ccccc2)C(=O)CCl)cc1 [TPCK]
ICE [2]
  Inhibition: +

## Ac-Tyr(dAla)-Val-Ala-Asp-CHO
ICE [6]
  less potent at inhibiting ICE activity: 300 fold

## PMSF
ICE [2]
  Inhibition: -
